Experimental data taken from PubChem BioAssay AID1963843 (Molecular Pharmacology Branch, DTP, NCI, 2024).

Test system: 616215-338-R-J1-PDC complex spheroid viability
Experiment: Anticancer human tumor 616215-338-R-J1-PDC patient-derived colon adenocarcinoma cell line growth inhibition [POLQ]
Conditions: for IC50: curve of first compound; for viability, T/C: stronger effect = lower value
Procedure, shortened: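 Growth inhibition in 3D: complex spheroids (tumor PDC, HUVEC, MSC) treated with POLQ inhibitor combinations; where Cmax unknown, highest tested concentration 10 microM, except SN-38 at 1 microM.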

[1] = second compound 0.0316 µM, first compound 0.0316 µM
[2] = second compound 0.0316 µM, first compound 0.1 µM
[3] = second compound 0.0316 µM, first compound 0.316 µM
[4] = second compound 0.0316 µM, first compound 1 µM
[5] = second compound 0.0316 µM, first compound 3.16 µM
[6] = second compound 0.0316 µM, first compound 10 µM
[7] = second compound 0.1 µM, first compound 0.0316 µM
[8] = second compound 0.1 µM, first compound 0.1 µM
[9] = second compound 0.1 µM, first compound 0.316 µM
[10] = second compound 0.1 µM, first compound 1 µM
[11] = second compound 0.1 µM, first compound 3.16 µM
[12] = second compound 0.1 µM, first compound 10 µM
[13] = second compound 0.316 µM, first compound 0.0316 µM
[14] = second compound 0.316 µM, first compound 0.1 µM
[15] = second compound 0.316 µM, first compound 0.316 µM
[16] = second compound 0.316 µM, first compound 1 µM
[17] = second compound 0.316 µM, first compound 3.16 µM
[18] = second compound 0.316 µM, first compound 10 µM
[19] = second compound 1 µM, first compound 0.0316 µM
[20] = second compound 1 µM, first compound 0.1 µM
[21] = second compound 1 µM, first compound 0.316 µM
[22] = second compound 1 µM, first compound 1 µM
[23] = second compound 1 µM, first compound 3.16 µM
[24] = second compound 1 µM, first compound 10 µM
[25] = second compound 3.16 µM, first compound 0.0316 µM
[26] = second compound 3.16 µM, first compound 0.1 µM
[27] = second compound 3.16 µM, first compound 0.316 µM
[28] = second compound 3.16 µM, first compound 1 µM
[29] = second compound 3.16 µM, first compound 3.16 µM
[30] = second compound 3.16 µM, first compound 10 µM
[31] = second compound 10 µM, first compound 0.0316 µM
[32] = second compound 10 µM, first compound 0.1 µM
[33] = second compound 10 µM, first compound 0.316 µM
[34] = second compound 10 µM, first compound 1 µM
[35] = second compound 10 µM, first compound 3.16 µM
[36] = second compound 10 µM, first compound 10 µM
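Further: spheroids exposed to compounds for one week before readout.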
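Wherever viability, T/C is given: percent viability relative to DMSO vehicle wells taken as 100%.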

## CC1COCCN1c1cc(C2(O)CC3CCC(C2)O3)c2cnn(-c3ccn[nH]3)c2n1 (centres undefined) + Cc1cccc(N(C)C(=O)C2C(O)CCN2c2nc(C)cc(C(F)(F)F)c2C#N)c1
Second compound 0.0316 µM
  IC50: 3.91 µM
Second compound 0.1 µM
  IC50: 2.95 µM
Second compound 0.316 µM
  IC50: 2.75 µM
Second compound 1 µM
  IC50: 3.78 µM
Second compound 3.16 µM
  IC50: 4.3 µM
Second compound 10 µM
  IC50: 1.4 µM
[1]
  viability, T/C: 98.1%
[2]
  viability, T/C: 102%
[3]
  viability, T/C: 76.6%
[4]
  viability, T/C: 65.3%
[5]
  viability, T/C: 56.2%
[6]
  viability, T/C: 38.9%
[7]
  viability, T/C: 101%
[8]
  viability, T/C: 99.1%
[9]
  viability, T/C: 76.2%
[10]
  viability, T/C: 71.7%
[11]
  viability, T/C: 46.5%
[12]
  viability, T/C: 33.6%
[13]
  viability, T/C: 106%
[14]
  viability, T/C: 103%
[15]
  viability, T/C: 74.9%
[16]
  viability, T/C: 61.4%
[17]
  viability, T/C: 53.5%
[18]
  viability, T/C: 33.6%
[19]
  viability, T/C: 105%
[20]
  viability, T/C: 94.7%
[21]
  viability, T/C: 74.2%
[22]
  viability, T/C: 70%
[23]
  viability, T/C: 57.9%
[24]
  viability, T/C: 33%
[25]
  viability, T/C: 106%
[26]
  viability, T/C: 92%
[27]
  viability, T/C: 71.1%
[28]
  viability, T/C: 71.8%
[29]
  viability, T/C: 58.1%
[30]
  viability, T/C: 36.6%
[31]
  viability, T/C: 105%
[32]
  viability, T/C: 94.6%
[33]
  viability, T/C: 68.8%
[34]
  viability, T/C: 53.4%
[35]
  viability, T/C: 44%
[36]
  viability, T/C: 30.8%

## COc1cccc2c1C(=O)c1c(O)c3c(c(O)c1C2=O)CC(O)(C(=O)CO)CC3OC1CC(N)C(O)C(C)O1 (centres undefined) + Nc1ccc(C#CCN(C(=O)Cc2ncc(C(F)(F)F)cc2C(F)(F)F)c2ccc(F)cc2)nn1
Second compound 0.0316 µM
  IC50: 0.124 µM
Second compound 0.1 µM
  IC50: < 0.0316 µM
Second compound 0.316 µM
  IC50: 0.0892 µM
Second compound 1 µM
  IC50: 0.0792 µM
Second compound 3.16 µM
  IC50: 0.0584 µM
Second compound 10 µM
  IC50: < 0.0316 µM
[1]
  viability, T/C: 53.5%
[2]
  viability, T/C: 50.3%
[3]
  viability, T/C: 43.8%
[4]
  viability, T/C: 20.9%
[5]
  viability, T/C: 1.47%
[6]
  viability, T/C: 1.5%
[7]
  viability, T/C: 52%
[8]
  viability, T/C: 46.5%
[9]
  viability, T/C: 42.4%
[10]
  viability, T/C: 26.1%
[11]
  viability, T/C: 1.84%
[12]
  viability, T/C: 0.12%
[13]
  viability, T/C: 61.7%
[14]
  viability, T/C: 41.8%
[15]
  viability, T/C: 40.4%
[16]
  viability, T/C: 22.4%
[17]
  viability, T/C: 0.9%
[18]
  viability, T/C: 0.55%
[19]
  viability, T/C: 65.2%
[20]
  viability, T/C: 40.4%
[21]
  viability, T/C: 35.9%
[22]
  viability, T/C: 23.1%
[23]
  viability, T/C: 2.85%
[24]
  viability, T/C: 0.37%
[25]
  viability, T/C: 52.8%
[26]
  viability, T/C: 48%
[27]
  viability, T/C: 35.2%
[28]
  viability, T/C: 23.5%
[29]
  viability, T/C: 1.29%
[30]
  viability, T/C: 0.18%
[31]
  viability, T/C: 46.3%
[32]
  viability, T/C: 38.1%
[33]
  viability, T/C: 27.4%
[34]
  viability, T/C: 14.9%
[35]
  viability, T/C: 0.84%
[36]
  viability, T/C: 0.33%
